Assay [1] is described as follows: Specific binding of 3H-labeled compound to membrane fractions prepared from the other rat tissues. The settings on record: 3H-labeled compound of Example 7, 37° C., 1 hour; relative to dorsal root ganglion. As for the experimental part: (§1) A binding property of a ^3H-labeled cyclic amine derivative (I) to each of membrane fractions prepared from various tissues of a rat was evaluated, and thus, a tissue containing a molecular target of the cyclic amine derivative (I) was clarified.
(§2) As the cyclic amine derivative (I), the compound of Example 7 was used.
(§3) Male SD rats (manufactured by Charles River Laboratories Japan, Inc.) of 7 weeks old were used. Rats were anesthetized with isoflurane, and euthanized by exsanguination from the abdominal aorta using a syringe having an inner wall treated with a heparin sodium injection (manufactured by AY Pharmaceuticals Co., Ltd.). […]
(§4) A homogenate sample of each tissue thus collected was prepared, using a homogenizer, by adding a homogenize buffer (sucrose (1 M), Tris-HCl (0.5 M), and 1× protease inhibitor cocktail (manufactured by Sigma Aldrich), pH 7.6) to the collected tissue. […] The resultant supernatant was ultracentrifuged at 100,000×g at 4° C. for 60 minutes, and the thus obtained precipitate was suspended in Krebs-Ringer bicarbonate buffer (manufactured by Sigma Aldrich) to quantitatively determine the amount of protein using a BCA protein assay kit (manufactured by Thermo Fisher Scientific K.K.). […]

Assay [2] can be described thus: Specific binding of 3H-labeled compound to membrane fraction prepared from rat brainstem. The settings on record: 3H-labeled compound of Example 7, 37° C., 1 hour; relative to dorsal root ganglion. As for the experimental part:
as §1, §2, §3, §4

Assay [3] is described as follows: Specific binding of 3H-labeled compound to membrane fraction prepared from rat dorsal root ganglion. The settings on record: 3H-labeled compound of Example 7, 37° C., 1 hour; unlabeled compound for non-specific binding; FIG. 2. As for the experimental part:
as §1, §2, §3, §4

A short description of assay [4]: Specific binding of 3H-labeled compound to membrane fraction prepared from rat spinal cord. The settings on record: 3H-labeled compound of Example 7, 37° C., 1 hour; relative to dorsal root ganglion. As for the experimental part:
as §1, §2, §3, §4

A short description of assay [5]: Specific binding of 3H-labeled compound to membrane fraction prepared from rat sciatic nerve. The settings on record: 3H-labeled compound of Example 7, 37° C., 1 hour; relative to dorsal root ganglion. As for the experimental part:
as §1, §2, §3, §4

In the case of `CN(C)C1CCN(C(=O)C[C@H](O)c2nccn2C)CC1` [Example 7, (S)-1-(4-(dimethylamino)piperidin-1-yl)-3-hydroxy-3-(1-methyl-1H-imidazol-2-yl)propan-1-one], the “specific bindings to the membrane fractions prepared from the other tissues including the brain, as % of the specific binding to the dorsal root ganglion membrane fraction” value in assay [1] is “less than 1%”. Besides, the “specific binding to the membrane fraction prepared from the brainstem, as % of the specific binding to the dorsal root ganglion membrane fraction” value in assay [2] was 4.2%. Further, the “specific binding to the membrane fraction prepared from the dorsal root ganglion” value in assay [3] is “significant”. In addition, the “specific binding to the membrane fraction prepared from the spinal cord, as % of the specific binding to the dorsal root ganglion membrane fraction” value in assay [4] is 23%. In addition, in assay [5], the “specific binding to the membrane fraction prepared from the sciatic nerve, as % of the specific binding to the dorsal root ganglion membrane fraction” value came out at 42%.
